# Where two headings read alike, the source gives them in different places.
# Assay: AMD070 PK study via IP injection: plasma, lung and liver concentration
# Format: in vivo, C57BL/6 mice
# Conditions: IP 400 μg/mouse; for concentration at 6 h: six hours post administration; for Kp: C57BL/6, read-out: Tissue AUC/Plasma AUC
# Procedure: At each endpoint, animals were euthanized with CO2 and blood collected via cardiac puncture. An aliquot was set aside at room temperature for hematology measurements with remaining blood processed for plasma for drug concentration determination. Lungs and livers were also collected and immediately frozen on dry ice and stored at -70°C until determination of drug concentration. AMD070 concentrations in mouse plasma were determined using protein precipitation extraction followed by UPLC-MS/MS analysis. Briefly, 100 μL aliquots of plasma were transferred to individual wells of an Isolute PPT+ (Biotage) array plate containing 300 μL of 0.1% formic acid (FA) in acetonitrile (ACN). […] The sample residue was then reconstituted into 200 μL of 0.1/5/95 FA/ACN/H2O (v/v/v) and analyzed using reverse phase chromatography (gradient elution) combined with multiple reaction monitoring acquisition (MRM). The mobile phases consisted of 0.1% FA in H2O and 0.1% FA in ACN. AMD070 was extracted from lung and liver tissue by homogenization under basic conditions followed by liquid-liquid extraction in tert-butyl methyl ether (TBME) and ethyl acetate respectively. In summary, 50 mg of lung or liver tissue pieces were cut, weighed, and transferred to homogenization tubes. 25 μL of deionized water for lung and 10 μL for liver were added to each tube, followed by the addition of zirconium (Zr) homogenization beads. The samples were homogenized for approximately 20 seconds in the BeadBeater, followed by 1 minute of centrifugation at room temperature at 13,520 rcf. 200 μL of 1 N NaOH was then transferred to each tube, followed by a second homogenization/centrifugation cycle as described above. […] The dried residue was reconstituted into 0.1/5/95 TFA/ACN/H2O and analyzed using reverse phase chromatography (gradient elution) combined with MRM acquisition in positive electrospray mode (ES+). The mobile phases consisted of 0.1% TFA in H2O and 0.1% TFA in ACN.
smiles,measurement,setting,value
NCCCCN(Cc1nc2ccccc2[nH]1)[C@H]1CCCc2cccnc21 [AMD070],Cmax,"C57BL/6, 400 ug, Liver",14300 ng/g
same,Tmax,"C57BL/6, 400 ug, Liver",30 min
same,Cmax,"C57BL/6, 400 ug, Lung",6140 ng/g
same,Tmax,"C57BL/6, 400 ug, Lung",30 min
same,Cmax,"C57BL/6, 400 ug, Plasma",770 ng/mL
same,Tmax,"C57BL/6, 400 ug, Plasma",30 min
same,AUC,"C57BL/6, 400 ug, Plasma, read-out: AUC (all time points)",1240 ng·h/mL
same,concentration at 6 h,"C57BL/6, liver, read-out: liver concentration",6470 ng/g
same,concentration at 6 h,"C57BL/6, lung, read-out: lung concentration",3740 ng/g
same,concentration at 6 h,"C57BL/6, plasma, read-out: plasma concentration",45 ng/mL
same,Kp,Liver,90.7
same,Kp,Lung,61.2
same,liver concentration (peak),30 minutes post administration,14.3 µg/g
same,lung concentration (peak),30 minutes post administration,6.14 µg/g
same,plasma concentration (peak),30 minutes post administration,770 ng/mL

# — publication PMC4801399, “Impact of a CXCL12/CXCR4 Antagonist in Bleomycin (BLM) Induced Pulmonary Fibrosis and Carbon Tetrachloride (CCl4) Induced Hepatic Fibrosis in Mice” (PLoS ONE, 2016)
